# Read-outs that look alike come from different tables or passages of the source.
# Assays:
# [1] = target: BCL6 BTB domain (biotin-thrombin-BCL6 amino acids 1-129) (Homo sapiens (Human), UniProt P41182); test: Surface Plasmon Resonance (SPR) assay; assay type: binding; details: Biacore T200, single cycle kinetic analysis
# Method: Surface Plasmon Resonance (SPR) Assay
# SPR studies were performed using a Biacore™ T200 instrument (GE Health Sciences Inc.). […] The Biacore flow rate was set at 100 μl/min. […] Curve fitting and KD calculations were performed with the Biacore T200 Evaluation software (GE Health Sciences Inc).
# [2] = tested on: BCL6 reporter construct in SuDHL4-3×BCL6-TK-Luc cells; test: Cell-based luciferase assay (BCL6 reporter); details: 48 h, read-out: Luc IC50
# Method in brief: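 SuDHL4 cells stably carrying a 3×BCL6-site TK-promoter firefly luciferase reporter, 15,000 cells/well, dosed over 10 concentrations (top 10 μM) and cultured two days at 37° C, 5% CO2. Luciferase luminescence read after room-temperature equilibration with neolite reagent.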
# [3] = tested on: Karpas422 cells; test: Tumor cell growth inhibition assay; assay type: cell-based; details: Homo sapiens, KARPAS-422, 144 h, read-out: GI Karpas EC50
# Method in brief: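 Karpas422 cells were dosed over a 10-point concentration range (top 5 μM) and grown 6 days at 37 °C, 5% CO2, in Alpha-MEM with 10% FBS. Viability was read as ATPlite luminescence.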
# [4] = SuDHL4-3×BCL6-TK-Luc cells, two days
# [5] = Karpas422 cells, six days, ATPlite
SMILES,Kd [1] [µM],IC50 [2] [µM],EC50 [3] [µM],"IC50 [2, 4] [µM]","EC50 [3, 5] [µM]"
"C[C@H]1CN(CC2CC2)CCN1c1cc(NC(=O)Cn2cc(-c3cc(C(N)=O)c(O)c(F)c3F)c3c(=O)n4c(nc32)CCCC4)c(Cl)c(F)n1 [I-45, (S)-5-(1-(2-((3-chloro-6-(4-(cyclopropyl-methyl)-2-methyl-piperazin-1-yl)-2-fluoropyridin-4-yl)amino)-2-oxoethyl)-4-oxo-1,4,6,7,8,9-hexahydropyrido [1,2-a]pyrrolo[2,3-d]pyrimidin-3-yl)-3,4-difluoro-2-hydroxy-benzamide]",0.0318,0.469,1.33,,
"COc1c(-c2cn(CC(=O)Nc3cc(N4CCN(C)C[C@@H]4C)nc(F)c3Cl)c3nc4n(c(=O)c23)CCC4)cc(C(N)=O)c(O)c1OC [I-68, (S)-5-(1-(2-((3-chloro-6-(2,4-dimethylpiperazin-1-yl)-2-fluoro-pyridin-4-yl)amino)-2-oxoethyl)-4-oxo-4,6,7,8-tetrahydro-1H-dipyrrolo[1,2-a:2′,3′-d]pyrimidin-3-yl)-2-hydroxy-3,4-dimethoxy-benzamide]",0.0313,3.42,1.62,,
"COc1c(-c2cn(CC(=O)Nc3cc(N4CCOC[C@@H]4C)nc(F)c3Cl)c3nc4n(c(=O)c23)CCC4)cc(C(N)=O)c(O)c1OC [I-70, (S)-5-(1-(2-((3-chloro-2-fluoro-6-(3-methyl-morpholino)pyridin-4-yl)amino)-2-oxoethyl)-4-oxo-4,6,7,8-tetra-hydro-1H-dipyrrolo [1,2-a:2′,3′-d]pyrimi-din-3-yl)-2-hydroxy-3,4-dimethoxy-benzamide]",0.255,3.82,4.07,,
"COc1c(O)c(C(N)=O)cc(-c2cn(CC(=O)Nc3cc(N4CCN(C)C[C@@H]4C)ncc3Cl)c3nc4n(c(=O)c23)CCC4)c1F [I-17, (S)-5-(1-(2-((5-chloro-2-(2,4-dimethyl-piperazin-1-yl)pyridin-4-yl)amino)-2-oxoethyl)-4-oxo-4,6,7,8-tetrahydro-1H-dipyrrolo[1,2-a:2′,3′-d]pyrimidin-3-yl)-4-fluoro-2-hydroxy-3-methoxybenzamide]",0.0496,,,0.85,0.985
"C[C@H]1CN(C2COC2)CCN1c1cc(NC(=O)Cn2cc(-c3cc(C(N)=O)c(O)c(F)c3F)c3c(=O)n4c(nc32)CCC4)c(Cl)c(F)n1 [I-20, (S)-5-(1-(2-((3-chloro-2-fluoro-6-(2-methyl-4-(oxetan-3-yl)piperazin-1-yl)pyridin-4-yl)amino)-2-oxoethyl)-4-oxo-4,6,7,8-tetrahydro-1H-dipyrrolo[1,2-a:2′,3′-d]pyrimidin-3-yl)-3,4-difluoro-2-hydroxy-benzamide]",0.00396,,,0.0612,0.0576
"COCCN1CCN(c2cc(NC(=O)Cn3cc(-c4cc(C(N)=O)c(O)c(F)c4F)c4c(=O)n5c(nc43)CCC5)c(Cl)c(F)n2)[C@@H](C)C1 [I-25, (S)-5-(1-(2-((3-chloro-2-fluoro-6-(4-(2-methoxyethyl)-2-methyl-piperazin-1-yl)pyridin-4-yl)amino)-2-oxoethyl)-4-oxo-4,6,7,8-tetrahydro-1H-dipyrrolo[1,2-a:2′,3′-d]pyrimidin-3-yl)-3,4-difluoro-2-hydroxy-benzamide]",0.00564,,,0.0787,0.0751
"C[C@H]1COCCN1c1cc(NC(=O)Cn2cc(-c3cc(C(N)=O)c(O)c(F)c3F)c3c(=O)n4c(nc32)CC(C)(C)C4)c(Cl)c(F)n1 [I-58, (S)-5-(1-(2-((3-chloro-2-fluoro-6-(3-methyl-morpholino)pyridin-4-yl)amino)-2-oxoethyl)-7,7-dimethyl-4-oxo-4,6,7,8-tetrahydro-1H-dipyrrolo[1,2-a:2′,3′-d]pyrimidin-3-yl)-3,4-difluoro-2-hydroxy-benzamide]",0.0287,,,0.19,0.0962
"CC1CN(C)CC(C)N1c1cc(NC(=O)Cn2cc(-c3cc(C(N)=O)c(O)c(F)c3F)c3c(=O)n4c(nc32)CCC4)c(Cl)cn1 (stereo not drawn) [I-21, 5-(1-(2-((5-chloro-2-(2,4,6-trimethyl-piperazin-1-yl)pyridin-4-yl)amino)-2-oxoethyl)-4-oxo-4,6,7,8-tetrahydro-1H-dipyrrolo[1,2-a:2′,3′-d]pyrimidin-3-yl)-3,4-difluoro-2-hydroxy-benzamide]",0.0256,0.355,0.329,,
"C[C@H]1CN(CC(F)F)CCN1c1cc(NC(=O)Cn2cc(-c3cc(C(N)=O)c(O)c(F)c3F)c3c(=O)n4c(nc32)CCC4)c(Cl)c(F)n1 [I-48, (S)-5-(1-(2-((3-chloro-6-(4-(2,2-difluoroethyl)-2-methylpiperazin-1-yl)-2-fluoropyridin-4-yl)amino)-2-oxoethyl)-4-oxo-4,6,7,8-tetrahydro-1H-dipyrrolo[1,2-a:2′,3′-d]pyrimidin-3-yl)-3,4-difluoro-2-hydroxy-benzamide]",0.0137,,,0.0964,0.0646
"C[C@H]1COCCN1c1cc(NC(=O)Cn2cc(-c3cc(C(N)=O)c(O)c4c3OCO4)c3c(=O)n4c(nc32)CCC4)c(Cl)cn1 [I-85, (S)-7-(1-(2-((5-chloro-2-(3-methylmorpholino)pyridin-4-yl)amino)-2-oxoethyl)-4-oxo-4,6,7,8-tetrahydro-1H-dipyrrolo[1,2-a:2′,3′-d]pyrimidin-3-yl)-4-hydroxybenzo[d][1,3] dioxole-5-carboxamide]",0.00161,,,0.0154,0.0296
"C[C@H]1CN(CC2CC2)CCN1c1cc(NC(=O)Cn2cc(-c3cc(C(N)=O)c(O)c(F)c3F)c3c(=O)n4c(nc32)CCC4)c(Cl)c(F)n1 [I-24, (S)-5-(1-(2-((3-chloro-6-(4-(cyclopropylmethyl)-2-methylpiperazin-1-yl)-2-fluoropyridin-4-yl)amino)-2-oxoethyl)-4-oxo-4,6,7,8-tetrahydro-1H-dipyrrolo[1,2-a:2′,3′-d]pyrimidin-3-yl)-3,4-difluoro-2-hydroxy-benzamide]",0.0123,,,0.152,0.134
"CCN1CCN(c2cc(NC(=O)Cn3cc(-c4cc(C(N)=O)c(O)c(F)c4F)c4c(=O)n5c(nc43)CCCC5)c(Cl)c(F)n2)[C@@H](C)C1 [I-43, (S)-5-(1-(2-((3-chloro-6-(4-ethyl-2-methyl-piperazin-1-yl)-2-fluoropyridin-4-yl)amino)-2-oxoethyl)-4-oxo-1,4,6,7,8,9-hexahydropyrido [1,2-a]pyrrolo[2,3-d]pyrimidin-3-yl)-3,4-difluoro-2-hydroxy-benzamide]",0.0428,,,0.232,0.24
"C[C@H]1COCCN1c1cc(NC(=O)Cn2cc(-c3cc(C(N)=O)c(O)c(Cl)c3F)c3c(=O)n4c(nc32)CCC4)c(Cl)c(F)n1 [I-11, (S)-3-chloro-5-(1-(2-((3-chloro-2-fluoro-6-(3-methylmorpholino)pyridin-4-yl)amino)-2-oxoethyl)-4-oxo-4,6,7,8-tetrahydro-1H-dipyrrolo [1,2-a:2′,3′-d]pyrimidin-3-yl)-4-fluoro-2-hydroxybenzamide]",0.112,,,0.988,1.9
"COc1c(-c2cn(CC(=O)Nc3cc(N4CCOC[C@@H]4C)ncc3Cl)c3nc4n(c(=O)c23)CCC4)cc(C(N)=O)c(O)c1OC [I-69, (S)-5-(1-(2-((5-chloro-2-(3-methylmorpholino)pyridin-4-yl)amino)-2-oxoethyl)-4-oxo-4,6,7,8-tetrahydro-1H-dipyrrolo[1,2-a:2′,3′-d]pyrimidin-3-yl)-2-hydroxy-3,4-dimethoxy-benzamide]",0.294,,,7.97,10

# From patent publication US11242351B2, “Tricyclic inhibitors of the BCL6 BTB domain protein-protein interaction and uses thereof” (priority 2017, dated 2022)
